This is an account of results in patent publication US20200261534A1, “NEW TREATMENTS OF MULTIPLE MYELOMA” (priority 2017, published 2020).

Common to all, as to type: cell-based
For experiment [1], the system named is A549, epithelial (lung cancer). Description: MTT viability assay, A549. On the procedure: A549, epithelial (lung cancer), ATCC: CCL-185
(§1) Cell lines A549, MCF-7 and RAMOS were cultured in incubator under CO2 (6%) at 37° C. in DMEM high glucose (Dulbecco's Modified Eagle Solution, Gibco-BRL 31966-21) medium with 10% fetal bovine serum inactivated (FBS) (Gibco-BRL 10106-169). Cell lines HL-60 and MM.1S were cultured in incubator at 37° C. in RPMI-1640 (Sigma R8758) medium with 10% of fetal bovine serum inactivated (FBS) and 2 mM glutamine (Sigma G7513). Cell lines BJ were cultured in incubator under CO2 (6%) at 37° C. in Eagle's Minimum Essential Medium (Sigma, M-2279) with 10% fetal bovine serum inactivated (FBS) (Gibco-BRL 10106-169).
During the amplification step and the assays adherent cells were rinsed with DPBS (Dulbecco's Phosphate Buffered Saline, Sigma D1283) three times and afterward treated for 5 minutes with trypsin ([…]) (Gibco-BRL, 15400054) in solution of DPBS at 37° C., and, once detached, transferred in the culturing medium. No-adherent cells were centrifuged and transferred in the culturing medium. Cells were counted in a Neubauer chamber after labelling with Tripan-Blue. […]
(§2) Cells were incubated with the compounds at the indicated concentrations during 24-72 h in incubator under CO2 atmosphere at 37° C. Then, cell viability was measured by means of MTT (3-(4,5-dimethylthiazol-2-yl)-2,5-diphenyltetrazolium bromide) assay. Stock solution of MTT (475989 Calbiochem) was 5 mg/ml in PBS. 1×.10 μl/well of MTT solution were added and the plate was incubated for 3-4 hr. The medium was discarded and 100 μl of extracting buffer (PBS 1×, 15% SDS, 50% […] N,N-Dimethylformamide, pH 4.7) were added to each well. Plates were incubated for 16 h at room temperature under orbital shaking. Absorbance at 570 nm was finally measured. As negative control (experiment noise) 3 wells were treated with 20 μl/well of a solution of SDS 10% in H2O.
Data analysis was performed calculating the percentage of cell viability normalized vs. the values of negative control, which was considered equal to 100%. The dose/response curve was fitted through the sigmoidal equation dose-response (variable slope) and the IC50 values were calculated as follow: […]
(In general: Tetrazolium assays rely on reduction of a dye to a coloured formazan, in cell work by metabolically active cells.)

Experiment [2] relates to MM.1S, B Lymphoblast (multiple myeloma). Description: MTT viability assay, MM.1S. The procedure: MM.1S, B Lymphoblast (multiple myeloma), ATCC: CRL-2974
as §1
During the amplification step and the assays adherent cells were rinsed with DPBS (Dulbecco's Phosphate Buffered Saline, Sigma D1283) three times and afterward treated for 5 minutes with trypsin ([…]) (Gibco-BRL, 15400054) in solution of DPBS at 37° C., and, once detached, transferred in the culturing medium. No-adherent cells were centrifuged and transferred in the culturing medium. Cells were counted in a Neubauer chamber after labelling with Tripan-Blue.
Cells were seeded at a density of 10000 cells/well in 100 μl of medium in 96 well plates. After 24 h, the compounds to be tested were added to calculate the dose/response curve at the starting concentration of 100 μM with serial dilutions (1:1). Controls are the untreated cells. Each experiment was performed in triplicate.
as §2
Data analysis was performed calculating the percentage of cell viability normalized vs. the values of negative control, which was considered equal to 100%. The dose/response curve was fitted through the sigmoidal equation dose-response (variable slope) and the IC50 values were calculated as follow:
Y=Bottom+(Top−Bottom)/(1+10^{[(LogIC50−X)*HillSlope]},
All cell lines were cultured in incubator at 37° C. in RPMI-1640 (Sigma R8758) medium with 10% of fetal bovine serum inactivated (FBS) and 2 mM glutamine (Sigma G7513). During the amplification step cells were centrifuged and transferred into the culturing medium. Cells were counted in a Neubauer chamber after labelling with Tripan-Blue.
as §2, with “peptidomimetic compound (S09)” for “compounds”
Cell lines A549 and MBA-MD231 were cultured in incubator under CO2 (6%) at 37° C. in DMEM high glucose (Dulbecco's Modified Eagle Solution, Gibco-BRL 31966-21) medium with 10% fetal bovine serum inactivated (FBS) (Gibco-BRL 10106-169). […]

Experiment [3] concerns RAMOS, B lymphocyte (Burkitt's Lymphoma). Description: MTT viability assay, RAMOS. On the procedure: RAMOS, B lymphocyte (Burkitt's Lymphoma), ATCC: CRL-1596 […] During the amplification step and the assays adherent cells were rinsed with DPBS (Dulbecco's Phosphate Buffered Saline, Sigma D1283) three times and afterward treated for 5 minutes with trypsin ([…]) (Gibco-BRL, 15400054) in solution of DPBS at 37° C., and, once detached, transferred in the culturing medium. No-adherent cells were centrifuged and transferred in the culturing medium. Cells were counted in a Neubauer chamber after labelling with Tripan-Blue. […] Cells were seeded at a density of 10000 cells/well in 100 μl of medium in 96 well plates. […] Controls are the untreated cells. Each experiment was performed in triplicate. Cells were incubated with the compounds at the indicated concentrations during 24-72 h in incubator under CO2 atmosphere at 37° C. […] Stock solution of MTT (475989 Calbiochem) was 5 mg/ml in PBS. 1×.10 μl/well of MTT solution were added and the plate was incubated for 3-4 hr. […] Plates were incubated for 16 h at room temperature under orbital shaking. Absorbance at 570 nm was finally measured. […] The dose/response curve was fitted through the sigmoidal equation dose-response (variable slope) and the IC50 values were calculated as follow: Y=Bottom+(Top−Bottom)/(1+10^{[(LogIC50−X)*HillSlope]},

Read-outs that look alike come from different tables or passages of the source. Starred links: 1 amine or outer side, 2 acyl side, 3 side chain; linkers in the order of their positions; H or OH if unused. Positions of bridges follow the written chain, without caps; N, C: chain ends. Non-standard residues stand in square brackets, D forms with d. Residues, ends and D or L forms follow the SMILES beside them. No end group written: not given here. ξ: configuration not given here. Biphenyl(4,4'-CH2)2 = c1cc(-c2ccc(C[*:2])cc2)ccc1C[*:1]; ξαMeNle(6-ylidene) = CC(CCCC=[*:3])(N[*:1])C(=O)[*:2]; X1 = CC(CCCCCCC=[*:3])(N[*:1])C(=O)[*:2]; Octanediyl(1,8) = C(CCCC[*:2])CCC[*:1]; ξC = NC(CS)C(=O)O Where only a bound is given, the exact number is not on record here.

Usually IC50 stands for the concentration that gives 50% inhibition.

Regarding `CC[C@H](C)[C@H](NC(=O)[C@H](Cc1ccc(O)cc1)NC(=O)[C@H](C)NC(=O)C1CSCCCCCCCCSCC(NC(=O)[C@H](CCCCN)NC(=O)[C@@H]2CCCN2C(=O)[C@H](C)N)C(=O)N[C@@H](C(C)C)C(=O)N[C@@H]([C@@H](C)CC)C(=O)N[C@@H](CC(C)C)C(=O)N[C@@H](CCCCN)C(=O)N[C@@H](CCCCN)C(=O)N[C@@H](C)C(=O)N1)C(=O)N[C@@H](CC(C)C)C(=O)N[C@@H](CO)C(=O)O` (stereo partly shown) [IDP-P1708160] (H-APK[ξC]VILKKA[ξC]AYILS-OH; linker 4-11 via Octanediyl(1,8); N-terminus and C-terminus assumed), the IC50 in experiment [1] stood at 65 ± 17 µM; in experiment [2] it was 48 µM; in experiment [2] (24 h), 35 µM; in experiment [2] (72 h), 5 µM.
On to `CC[C@H](C)[C@H](NC(=O)[C@H](Cc1ccc(O)cc1)NC(=O)[C@H](C)NC(=O)[C@@H](NC(=O)[C@H](C)NC(=O)C1(C)CCCC=CCCCCCCC(C)(NC(=O)[C@H](C)N)C(=O)N[C@@H](CCCCN)C(=O)N[C@@H](C(C)C)C(=O)N[C@@H](C(C)C)C(=O)N[C@@H]([C@@H](C)CC)C(=O)N[C@@H](CC(C)C)C(=O)N[C@@H](CCCCN)C(=O)N1)[C@@H](C)O)C(=O)N[C@@H](CC(C)C)C(=O)N[C@@H](CO)C(=O)O` (stereo partly shown) [IDP-S19, AXKVVILKXATAYILS] (H-A[X1]KVVILK[ξαMeNle(6-ylidene)]ATAYILS-OH; staple 2-9), for which the IC50 is greater than 100 µM in experiment [1] (A549, same protocol as Example 2, Table 6, read-out: Compound (IC50)); greater than 100 µM in experiment [3] (Ramos, same protocol as Example 2, Table 6, read-out: Compound (IC50)); greater than 100 µM in experiment [2] (MM.1S, same protocol as Example 2, Table 6, read-out: Compound (IC50)).
`CCc1ccc(/C=C2/SC(=S)NC2=O)cc1` [10058-F4, reference compound]: the IC50 in experiment [1] (A549, MTT, incubation 24-72 h, Table 3, read-out: IC50 values) is greater than 100 µM; in experiment [3] (Ramos, MTT, incubation 24-72 h, Table 3, read-out: IC50 values), roughly 57 µM; in experiment [2] (MM.1S, MTT, incubation 24-72 h, Table 3, read-out: IC50 values) it was greater than 100 µM.
Turning to `CC[C@H](C)[C@H](NC(=O)C1(C)CCCC=CCCCCCCC(C)(NC(=O)[C@@H](NC(=O)[C@@H](NC(=O)[C@H](CCCCN)NC(=O)[C@@H]2CCCN2C(=O)[C@H](C)N)C(C)C)C(C)C)C(=O)N[C@@H](CC(C)C)C(=O)N[C@@H](CCCCN)C(=O)N[C@@H](CCCCN)C(=O)N[C@@H](C)C(=O)N[C@@H]([C@@H](C)O)C(=O)N[C@@H](C)C(=O)N1)C(=O)N[C@@H](CC(C)C)C(=O)N[C@@H](CO)C(=O)O` (stereo partly shown) [IDP-S22, APKVVXLKKATAXILS] (H-APKVV[X1]LKKATA[ξαMeNle(6-ylidene)]ILS-OH; staple 6-13; N-terminus and C-terminus assumed), the IC50 in experiment [1], in experiment [3] and in experiment [2] was greater than 100 µM throughout.
Regarding `CC[C@H](C)[C@H](NC(=O)[C@@H](NC(=O)[C@@H](NC(=O)[C@H](CCCCN)NC(=O)[C@@H]1CCCN1C(=O)[C@H](C)N)C(C)C)C(C)C)C(=O)NC1(C)CCCCCCC=CCCCC(C)(C(=O)N[C@@H](CC(C)C)C(=O)N[C@@H](CO)C(=O)O)NC(=O)[C@H](Cc2ccc(O)cc2)NC(=O)[C@H](C)NC(=O)[C@H]([C@@H](C)O)NC(=O)[C@H](C)NC(=O)[C@H](CCCCN)NC(=O)[C@H](CCCCN)NC1=O` (stereo partly shown) [IDP-S17, APKVVIXKKATAYXLS] (H-APKVVI[X1]KKATAY[ξαMeNle(6-ylidene)]LS-OH; staple 7-14; N-terminus and C-terminus assumed), the IC50 in experiment [1], in experiment [3] and in experiment [2] was greater than 100 µM in each case.
With “RQIKIWFQNRRMKWKKNELKRAFAALRDQI [Int-HI-S6A-F8, reference compound]”, the IC50 in experiment [1], in experiment [3] and in experiment [2] was greater than 100 µM throughout.
For `CC[C@H](C)[C@H](NC(=O)[C@H](Cc1ccc(O)cc1)NC(=O)[C@H](C)NC(=O)C1(C)CCCC=CCCCCCCC(C)(NC(=O)[C@H](CCCCN)NC(=O)[C@@H]2CCCN2C(=O)[C@H](C)N)C(=O)N[C@@H](C(C)C)C(=O)N[C@@H]([C@@H](C)CC)C(=O)N[C@@H](Cc2ccccc2)C(=O)N[C@@H](CCCCN)C(=O)N[C@@H](CCCCN)C(=O)N[C@@H](C)C(=O)N1)C(=O)N[C@@H](CC(C)C)C(=O)N[C@@H](CO)C(=O)O` (stereo partly shown) [S14, APKXVIFKKAXAYILS—OH] (H-APK[X1]VIFKKA[ξαMeNle(6-ylidene)]AYILS-OH; staple 4-11; N-terminus assumed), the IC50 in experiment [1] amounted to 9.1 ± 0.8 µM; in experiment [3] it was 55 µM; in experiment [2] it was 6.6 ± 0.9 µM; in experiment [2] (24 h), 7 µM; in experiment [2] (72 h) it was 7 µM.
As for `CC[C@H](C)[C@H](NC(=O)[C@H](Cc1ccc(O)cc1)NC(=O)[C@H](C)NC(=O)[C@@H]1CSCc2ccc(cc2)-c2ccc(cc2)CSC[C@H](NC(=O)[C@H](CCCCN)NC(=O)[C@@H]2CCCN2C(=O)[C@H](C)N)C(=O)N[C@@H](C(C)C)C(=O)N[C@@H]([C@@H](C)CC)C(=O)N[C@@H](CC(C)C)C(=O)N[C@@H](CCCCN)C(=O)N[C@@H](CCCCN)C(=O)N[C@@H](C)C(=O)N1)C(=O)N[C@@H](CC(C)C)C(=O)N[C@@H](CO)C(=O)O` [IDP-P1708161] (H-APKCVILKKACAYILS-OH; linker 4-11 via Biphenyl(4,4'-CH2)2; N-terminus and C-terminus assumed), the IC50 came to 42 ± 6 µM in experiment [1], 33 ± 15 µM in experiment [2], 10 µM in experiment [2] (24 h) and 15 µM in experiment [2] (72 h).
